Test results: US4265882A, “Sulphur analogs of penicillins having a nucleophile substituted in the 6 and 7 position, respectively” (Massachusetts Institute of Technology, priority 1977, dated 1981)

Columns and labels:
[1] = literature; cited from earlier work
[2] = tested on: Bacillus subtillis ATCC 6051; assay: Minimum inhibitory concentration in vitro, Bacillus subtillis; assay type: cell-based; parameters: unit not given here; conditions: free acids tested after removal of ester protective group
Method: (§1) General Procedure for Removing Protective Groups
(§2) The ester (100-200 mg) is dissolved in approx. 10 ml of 90% HOAc and the solution cooled to 0° before 1-1.5 g of zinc dust is added. The mixture is stirred at 0° for 3-5 hr. Removal of the zinc by filtration through celite into a flask containing 100 ml of ice-H2 O and washing the zinc with methylene chloride (50 ml) yielded a two-phase system. Separation of the organic layer, extraction of the aqueous layer with several methylene chloride-zinc washings, drying (MgSO4) and removal of the solvent under reduced pressure (no heat) afforded the free acid.
(§3) For purification (if required) the acid was dissolved in CH2 Cl2 and extracted with aqueous NaHCO3. The aqueous layer, after being extracted several times with CH2 Cl2, was cooled with ice and acidified with dilute HCl. Extraction with CH2 Cl2, drying (MgSO4) and removal of the solvent under reduced pressure (no heat) gave the pure acid.
(§4) A flask, charged with the ester, is submerged in an ice bath 5-10 min. before cold trifluoroacetic acid is added. The solution is stirred at 0° for 30-45 min. and then the solvent removed by distillation under reduced pressure (2-3 mm) with the reaction flask still submerged in the ice bath. The residue is freeze dried from benzene.
If purification is required, it is done in the same manner as described for removal of the trichloroethyl group (see above).
The benzhydryl group is removed in the same manner as described for the removal of the t-butyl group, above. After freeze drying the residue was purified in the following manner. The acid was dissolved in methylene chloride and extracted with aqueous NaHCO3. The aqueous layer, after being extracted several times with methylene chloride, was partitioned with methylene chloride, cooled with ice, and acidified with dilute HCl. Extraction with methylene chloride, drying (MgSO4), and removal of the solvent under reduced pressure (no heat) gave the pure acid.
In order to remove the protective benzyhydryl group from benzyhydryl-6β-(triophene-2-acetylthio)-6α-methoxypenicillanate, the following procedure was found necessary. The ester (70-80 mg) is dissolved in 10 ml of CH2 Cl2 and the solution cooled to -77° (CO2 -acetone) before the addition of 0.5 ml of trifluoroacetic acid. The solution was warmed to approximately -10° (NaCl-H2 O-ice) and stirred at that temperature for 5-6 hr. The solution was cooled to -77° and 75-100 ml of benzene added. After the contents of the flask solidified the acid was isolated by freeze drying and bioassayed without purification.
The protective groups of the penicillin and cephalosporin esters were removed as described above and the resulting free acids were tested in vitro for bioactivity.

[3] = tested on: certain Gram-negative organisms; conditions: background; cited from earlier work
[4] = tested on: certain resistant staphylococci; conditions: background; cited from earlier work
[5] = tested on: Staphylococcus aerus (Roche); assay: Minimum inhibitory concentration in vitro, Staphylococcus aerus (Roche); assay type: cell-based; parameters: unit not given here; conditions: free acids tested after removal of ester protective group
Method: as §1, §2, §3, §4
(§5) If purification is required, it is done in the same manner as described for removal of the trichloroethyl group (see above). […]

Sarcina lutea = assay: Minimum inhibitory concentration in vitro, Sarcina lutea; assay type: cell-based; conditions: free acids tested after removal of ester protective group
Method: as §1, §2, §3, §4, §5

CC1(C)S[C@@H]2[C@@H](OC(=O)COc3ccccc3)C(=O)N2[C@H]1C(=O)O [6α-phenoxyacetoxypenicillanic acid]
biological activity [1]: exhibits no biological activity

COC1(SC(=O)OCC(Cl)(Cl)Cl)C(=O)N2C(C(=O)OC(c3ccccc3)c3ccccc3)C(C)(C)SC21 (stereo not drawn) [Benzhydryl 6β-(β,β,β-trichloroethoxycarbothio)6α-methoxypenicillanate]
Minimum Inhibitory Concentration [2]: 100

CC1(C)S[C@@H]2[C@H](NC(=O)[C@H](N)c3ccccc3)C(=O)N2[C@H]1C(=O)O [ampicillin]
broadened spectra of activity, Gram-negative organisms [3]: broadened the spectra to activity to include use against certain Gram-negative organisms

CC1(C)S[C@@H]2[C@H](NC(=O)C(C(=O)O)c3ccccc3)C(=O)N2[C@H]1C(=O)O (some centres unmarked) [carbenicillin]
broadened spectra of activity, Gram-negative organisms [3]: broadened the spectra to activity to include use against certain Gram-negative organisms

COc1cccc(OC)c1C(=O)N[C@@H]1C(=O)N2[C@@H]1SC(C)(C)[C@@H]2C(=O)O [methicillin]
activity against certain resistant staphylococci [4]: good activity

COC(=O)SC1(OC)C(=O)N2C(C(=O)OC(C)(C)C)=C(COC(C)=O)CSC21 (stereo not drawn) [t-Butyl 7β-(methoxycarbothio)-7α-methoxycephalosporanate]
Minimum Inhibitory Concentration [5]: 50
Minimum Inhibitory Concentration [2]: 50
Minimum Inhibitory Concentration (Sarcina lutea): 25 mg/mL

COC1(SC(=O)Cc2ccccc2)C(=O)N2C(C(=O)OC(C)(C)C)=C(COC(C)=O)CSC21 (stereo not drawn) [tert-Butyl 7β-(phenylacetylthio)-7α-methoxycephalosporanate]
Minimum Inhibitory Concentration [2]: < 6.25
Minimum Inhibitory Concentration (Sarcina lutea): 100 mg/mL

COC1(SC(=O)Cc2cccs2)C(=O)N2C(C(=O)OC(C)(C)C)=C(COC(C)=O)CSC21 (stereo not drawn) [tert-Butyl 7β-(thiophene-2-acetylthio)-7α-methoxycephalosporanate]
Minimum Inhibitory Concentration [2]: 50
